Series [1] in a line: Form conversion experiments: heating of solvated forms. Format: physicochemical. As to the method:
(§1) Further form conversion experiments were performed to determine interconversion among solid forms. The solvated forms were isothermally held at 150° C. for 5 min and the resulted solids were consistent with Form A. All aqueous slurries also afforded Form A.

Series [2] in a line: Slurry experiments of Form H in water/DMSO (form map).
Method: The effect of temperature (22° C.-70° C.) and water compositions in DMSO (50%-88%) on the stability of Form A and Form H of Compound 1 is mapped out in Table 6 and FIG. 45.
Series [3] in a line: Compression test of Form A. Format: physicochemical. As to conditions: 2000-psi pressure for about 1 minute. From the text: The stability of Form A was further characterized by compression test and form transfer experiments.
A further series can be described thus: Water uptake on storage. Format: physicochemical.
Series [4] is described as follows: Moisture sorption/desorption (hygroscopicity) by DVS. Format: physicochemical. As to the method: Hygroscopicity was determined on a Surface Measurement Systems DVS. Typically a sample size of 5-20 mg was loaded into the DVS instrument sample pan and the sample was analyzed on a DVS automated sorption analyzer at room temperature. The relative humidity was increased from 0% to 90% RH at 10% RH step, then at 95% RH. The relative humidity was then decreased in a similar manner to accomplish a full adsorption/desorption cycle.
The moisture sorption/desorption behavior of Form A was determined by DVS.

The next series can be described thus: physchem. As to conditions: 25 °C, thermodynamic from solid.
Series [5] in a line: Form conversion experiments: slurry in water. Format: physicochemical. The following applies: RT, 5 days. The method, then:
as §1

The term solubility denotes the concentration that dissolves in the medium under given conditions. A low value points to little dissolved substance.

Each structure is given as a SMILES string. ≈ marks a conversion by molar mass, not a printed value.

As to `C[C@@H]1CC[C@@H](Nc2nc(NC(C)(C)C)ncc2C(N)=O)C[C@H]1O` [Form D, 2-(tert-butylamino)-4-((1R,3R,4R)-3-hydroxy-4-methylcyclohexylamino)-pyrimidine-5-carboxamide], the “XRPD Result (solid form after heating)” value in series [1] (Heating, isothermal hold at 150° C. for 5 min) is on record as “Form A”.

Consider `C[C@@H]1CC[C@@H](Nc2nc(NC(C)(C)C)ncc2C(N)=O)C[C@H]1O` [Form H, 2-(tert-butylamino)-4-((1R,3R,4R)-3-hydroxy-4-methylcyclohexylamino)-pyrimidine-5-carboxamide], for which the “Stable Polymorph Form after slurry of Form H” value is given as “A/H” in series [2] (50% water in DMSO, 22° C.) and “A/H” in series [2] (60% water in DMSO, 40° C.).

As to `C[C@@H]1CC[C@@H](Nc2nc(NC(C)(C)C)ncc2C(N)=O)C[C@H]1O` [Form A, 2-(tert-butylamino)-4-((1R,3R,4R)-3-hydroxy-4-methylcyclohexylamino)-pyrimidine-5-carboxamide], the “solid form after compression (XRPD)” value in series [3] was “still Form A”. Besides, the “water uptake at room temperature” value in “Water uptake on storage” (room temperature) was “relatively slow water uptake”. In addition, in the series “Water uptake on storage” (storage at 40° C./75% RH for 7 months), the “water absorbed after storage” value is “up to 3%”. In addition, the “XRPD diffractogram after adsorption/desorption cycles” value in series [4] (after DVS cycle 0-95% RH) is listed as “no change”. The results for the DVS water uptake in series [4] (at 80% RH (Table 5)) and in series [4] (from 0 to 95% RH (Table 5)) were 1.0 wt % at and 1.2 wt % water, respectively. The “steep mass change (DVS)” value in series [4] (between 0 and 10% RH, room temperature) was 1.3%. The “total mass change (DVS)” value in series [4] (between 0 and 95% RH, room temperature) worked out at 2.3%. Besides, in series [2] (22° C., 70-88% water in DMSO), the “form stability in water/DMSO” value is reported as “remained as Form A”. The “thermodynamic stability in water/DMSO” value in series [2] (water rich water/DMSO mixture (>70%), 22° C.-70° C.) is reported as “thermodynamically stable form”. The solubility at 24 h in the series “physchem” (pH 4.5, aqueous buffer) came to 0.289 mg/mL (≈ 899 µM); in “physchem”, 0.038 mg/mL (≈ 118 µM).

As for `C[C@@H]1CC[C@@H](Nc2nc(NC(C)(C)C)ncc2C(N)=O)C[C@H]1O` [Form B, 2-(tert-butylamino)-4-((1R,3R,4R)-3-hydroxy-4-methylcyclohexylamino)-pyrimidine-5-carboxamide], the “solid form after heating above the desolvation temperature” value in series [1] (form transfer experiment, heating above the desolvation temperature) was “Form A”. For the same compound, the “XRPD Result (solid form after slurry in water)” value in series [5] is listed as “Form A”.
